Here are results for nine compounds from PubChem BioAssay (NCI).

For orientation: TGI means the concentration at which net growth stops. A higher TGI goes with less potent growth arrest.

Some test systems named below: MDA-N; MDA-MB-435; SNB-75 CNS; SK-MEL-2 melanoma; HCT-116 colon; EKVX NSCLC; UACC-62 melanoma; K-562 leukemia; OVCAR-8 ovarian; SW-620 colon; U251 CNS; HOP-92 NSCLC; UO-31 renal; 786-0 renal; HOP-62 NSCLC; HT29 colon; SK-OV-3 ovarian.
Common to all, as to test: DTP human tumour cell line panel, 48 h

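Dose response: 5 concentrations. Exposure: 48 h. Format: 96-well plates. Endpoint: linear interpolation; highest concentration if not reached. The concentration for full growth arrest is given as TGI.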

Consider `CCS(=O)(=O)CCn1cnc2c1c(=O)n(C)c(=O)n2C`, for which the TGI in the assay on MDA-N, in the assay on MDA-MB-435, in the assay on SNB-75 CNS, in the assay on SK-MEL-2 melanoma, in the assay on HCT-116 colon and in the assay with EKVX NSCLC was greater than 100 µM in each case. Besides, the TGI in the assay on UACC-62 melanoma, with K-562 leukemia, in the assay with OVCAR-8 ovarian, in the assay with SW-620 colon, in the assay with U251 CNS and in the assay with HOP-92 NSCLC was greater than 100 µM throughout. Besides, the total growth inhibition concentration (TGI) in the assay with UO-31 renal, in the assay on 786-0 renal, in the assay on HOP-62 NSCLC and in the assay with HT29 colon was greater than 100 µM each time.
As to `COc1cccc(C2C3=C(COC3=O)Oc3cc4c(cc32)OCO4)c1` (stereo not given), the TGI in the assay on MDA-N is less than 0.0202 µM; with MDA-MB-435, 0.0817 µM; with SNB-75 CNS, greater than 100 µM; in the assay with SK-MEL-2 melanoma, greater than 100 µM; with HCT-116 colon, greater than 31.6 µM; in the assay with EKVX NSCLC it was greater than 58 µM. In addition, the TGI in the assay with UACC-62 melanoma was greater than 100 µM; with K-562 leukemia, 6.11 µM; in the assay on OVCAR-8 ovarian, 20 µM; with SW-620 colon, greater than 100 µM; in the assay on U251 CNS it was greater than 100 µM; in the assay on UO-31 renal, greater than 100 µM. In addition, the results for the TGI with 786-0 renal, in the assay on HOP-62 NSCLC and in the assay with HT29 colon were greater than 66.4 µM, greater than 14 µM and 1.3 µM, respectively.
On to `CC(=O)OC1CC[C@]2(C)C3CC[C@@]4(C)C(CCC4[C@H](C)CCCC(C)C)[C@@H]3CCC2(Br)C1` (stereo not given in full), for which the TGI in the assay with MDA-N is greater than 50 µM; in the assay with MDA-MB-435, 19.4 µM; with SK-OV-3 ovarian it was greater than 50 µM; in the assay on SNB-75 CNS, greater than 50 µM; in the assay with HCT-116 colon it was 16.5 µM; in the assay with EKVX NSCLC it was greater than 50 µM. Also, the TGI was greater than 50 µM in the assay on UACC-62 melanoma; 35.2 µM in the assay with K-562 leukemia; 26.5 µM in the assay on OVCAR-8 ovarian; 19.3 µM in the assay on SW-620 colon; greater than 50 µM with U251 CNS; greater than 50 µM in the assay on HOP-92 NSCLC. In addition, the concentration for total growth inhibition (TGI) in the assay on UO-31 renal is 24.6 µM; in the assay on 786-0 renal it was 17.5 µM; with HOP-62 NSCLC it was greater than 50 µM; in the assay with HT29 colon, greater than 50 µM.
As for `Cc1c2c(n(CCN(C)C)c1C)NN=C(C#N)S2(=O)=O`, the TGI with MDA-N, in the assay on MDA-MB-435, with SK-OV-3 ovarian, with SNB-75 CNS, with SK-MEL-2 melanoma and in the assay with HCT-116 colon was greater than 100 µM each time. The TGI with EKVX NSCLC, in the assay on UACC-62 melanoma, in the assay on K-562 leukemia, with OVCAR-8 ovarian, with SW-620 colon and in the assay on U251 CNS was greater than 100 µM each time. Besides, the TGI in the assay on UO-31 renal, with 786-0 renal, with HOP-62 NSCLC and in the assay on HT29 colon was greater than 100 µM throughout.
In the case of `Cc1c(C)c(S(=O)(=O)N(CCCN)OCCCN)c(C)c2c1OC(C)(C)C2`, the TGI is 33.6 µM with MDA-N; greater than 100 µM in the assay on MDA-MB-435; greater than 100 µM in the assay with SK-OV-3 ovarian; 59.5 µM with SNB-75 CNS; 26.7 µM in the assay on SK-MEL-2 melanoma; greater than 100 µM in the assay on HCT-116 colon. Further, the TGI was 31.3 µM in the assay on EKVX NSCLC; greater than 100 µM with UACC-62 melanoma; greater than 100 µM with K-562 leukemia; greater than 100 µM in the assay with OVCAR-8 ovarian; 59.8 µM in the assay on SW-620 colon; 38.3 µM with U251 CNS. Moreover, the TGI with UO-31 renal is greater than 100 µM; in the assay on 786-0 renal, 68 µM; in the assay on HOP-62 NSCLC, greater than 100 µM; with HT29 colon, greater than 100 µM.
As to `COc1ccc(C2SC(C)C(=O)N2c2nc(-c3nc(-c4ccc(Cl)cc4)cs3)cs2)cc1` (stereo not given), the TGI with MDA-N, in the assay on MDA-MB-435, with SK-OV-3 ovarian, in the assay with SNB-75 CNS, in the assay with HCT-116 colon and with EKVX NSCLC was greater than 100 µM in each case. Besides, the TGI with UACC-62 melanoma, with K-562 leukemia, in the assay on OVCAR-8 ovarian, in the assay on SW-620 colon, in the assay with U251 CNS and in the assay with HOP-92 NSCLC was greater than 100 µM in each case. Further, the TGI with UO-31 renal, with 786-0 renal, in the assay on HOP-62 NSCLC and with HT29 colon was greater than 100 µM each time.
Consider `O=C(/C=C/c1ccc(O)c(O)c1O)OCCc1ccccc1`, for which the TGI with MDA-N is 34 µM; with MDA-MB-435 it was 36.2 µM; in the assay with SK-OV-3 ovarian it was greater than 100 µM; in the assay on SK-MEL-2 melanoma it was greater than 100 µM; in the assay with HCT-116 colon, 26.3 µM; in the assay on EKVX NSCLC, greater than 100 µM. Besides, the TGI in the assay with UACC-62 melanoma is greater than 100 µM; in the assay on K-562 leukemia, 37.3 µM; in the assay with SW-620 colon, 49.2 µM; in the assay on U251 CNS it was 80.6 µM; in the assay on HOP-92 NSCLC, greater than 100 µM; with UO-31 renal, 78.1 µM. Also, the concentration for total growth inhibition (TGI) was 35.5 µM with 786-0 renal, 55.5 µM in the assay with HOP-62 NSCLC and 53.4 µM with HT29 colon.
As for `O=c1[nH]n(Cc2ccccn2)c2ccc([N+](=O)[O-])cc12`, the TGI with MDA-N, with SNB-75 CNS, in the assay on SK-MEL-2 melanoma, in the assay with HCT-116 colon, in the assay on EKVX NSCLC and in the assay on UACC-62 melanoma was greater than 100 µM in each case. The concentration for total growth inhibition (TGI) in the assay with K-562 leukemia, in the assay on OVCAR-8 ovarian, in the assay with SW-620 colon, with U251 CNS, in the assay with HOP-92 NSCLC and in the assay with UO-31 renal was greater than 100 µM each time. In addition, the TGI in the assay on 786-0 renal, in the assay on HOP-62 NSCLC and in the assay on HT29 colon was greater than 100 µM each time.
Turning to `Cc1ccc(S(=O)(=O)N2CCCC2C(=O)O[C@H]2CC[C@H]3CC=C[C@H]32)cc1` (stereo not given in full), the total growth inhibition concentration (TGI) in the assay on MDA-N is greater than 100 µM; in the assay with MDA-MB-435 it was greater than 100 µM; in the assay on SK-OV-3 ovarian, greater than 100 µM; in the assay on SNB-75 CNS it was greater than 100 µM; in the assay on HCT-116 colon, greater than 31.6 µM; in the assay on EKVX NSCLC, greater than 100 µM. Moreover, the TGI is greater than 100 µM with UACC-62 melanoma; 78.9 µM in the assay on K-562 leukemia; greater than 100 µM in the assay on OVCAR-8 ovarian; greater than 100 µM in the assay on SW-620 colon; greater than 100 µM in the assay on U251 CNS; greater than 100 µM in the assay with UO-31 renal. The TGI is greater than 31.6 µM in the assay on 786-0 renal, greater than 100 µM in the assay with HOP-62 NSCLC and greater than 100 µM with HT29 colon.
